Results from PubChem BioAssay (NCI).
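Method: 48-hour compound exposure of cells in 96-well plates, five concentrations, linear interpolation of endpoints. GI50 marks 50% less growth. TGI: concentration producing complete growth inhibition.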

Experiments:
Test in all cases: inhibition of tumour cell growth, NCI panel, 48 h; in the data active means GI50 below about 0.43 µM; inactive means the rest
MOLT-4 leukemia = tested on: MOLT-4 leukemia
HCT-15 colon = tested on: HCT-15 colon
M14 melanoma = tested on: M14 melanoma
UACC-62 melanoma = tested on: UACC-62 melanoma
NCI-H226 lung = tested on: NCI-H226 lung
DMS 114 small cell lung = tested on: DMS 114 small cell lung
RXF 393 renal = tested on: RXF 393 renal
A498 renal = tested on: A498 renal
SR leukemia = tested on: SR leukemia
OVCAR-8 ovarian = tested on: OVCAR-8 ovarian
HT29 colon = tested on: HT29 colon
CCRF-CEM leukemia = tested on: CCRF-CEM leukemia
LOX IMVI melanoma = tested on: LOX IMVI melanoma
K-562 leukemia = tested on: K-562 leukemia
NCI-H460 lung = tested on: NCI-H460 lung
RXF-631 renal = tested on: RXF-631 renal
MALME-3M melanoma = tested on: MALME-3M melanoma
A549 NSCLC = tested on: A549 NSCLC
SW-620 colon = tested on: SW-620 colon
RPMI-8226 leukemia = tested on: RPMI-8226 leukemia
SK-MEL-28 melanoma = tested on: SK-MEL-28 melanoma
SF-295 CNS = tested on: SF-295 CNS
IGROV1 ovarian = tested on: IGROV1 ovarian
HL-60(TB) leukemia = tested on: HL-60(TB) leukemia
NCI-H23 lung = tested on: NCI-H23 lung
SNB-78 CNS = tested on: SNB-78 CNS
OVCAR-5 ovarian = tested on: OVCAR-5 ovarian
EKVX NSCLC = tested on: EKVX NSCLC
COLO 205 colon = tested on: COLO 205 colon
SN12C renal = tested on: SN12C renal
UACC-257 melanoma = tested on: UACC-257 melanoma
HOP-18 NSCLC = tested on: HOP-18 NSCLC
786-0 renal = tested on: 786-0 renal
SK-MEL-5 melanoma = tested on: SK-MEL-5 melanoma
LXFL 529 NSCLC = tested on: LXFL 529 NSCLC
SF-539 CNS = tested on: SF-539 CNS
DLD-1 colon = tested on: DLD-1 colon
CAKI-1 renal = tested on: CAKI-1 renal
ACHN renal = tested on: ACHN renal
HCC-2998 colon = tested on: HCC-2998 colon
SNB-75 CNS = tested on: SNB-75 CNS
KM20L2 colon = tested on: KM20L2 colon
DMS 273 small cell lung = tested on: DMS 273 small cell lung
SNB-19 CNS = tested on: SNB-19 CNS
OVCAR-4 ovarian = tested on: OVCAR-4 ovarian
HCT-116 colon = tested on: HCT-116 colon
SK-MEL-2 melanoma = tested on: SK-MEL-2 melanoma
OVCAR-3 ovarian = tested on: OVCAR-3 ovarian
SF-268 CNS = tested on: SF-268 CNS
HOP-62 NSCLC = tested on: HOP-62 NSCLC
HOP-92 NSCLC = tested on: HOP-92 NSCLC
UO-31 renal = tested on: UO-31 renal

CC[O-].CC[O-].COc1ccc(C(=O)[CH-]C(C)=O)cc1OC.COc1ccc(C(=O)[CH-]C(C)=O)cc1OC.[Ti+4]
> 100 µM: TGI (MOLT-4 leukemia) | TGI (HCT-15 colon) | TGI (M14 melanoma) | TGI (UACC-62 melanoma) | TGI (NCI-H226 lung) | TGI (DMS 114 small cell lung) | TGI (OVCAR-8 ovarian) | TGI (HT29 colon) | TGI (CCRF-CEM leukemia) | TGI (LOX IMVI melanoma) | TGI (K-562 leukemia) | TGI (NCI-H460 lung) | TGI (RXF-631 renal) | TGI (A549 NSCLC) | TGI (SW-620 colon) | TGI (RPMI-8226 leukemia) | TGI (SK-MEL-28 melanoma) | TGI (SF-295 CNS) | TGI (IGROV1 ovarian) | TGI (HL-60(TB) leukemia) | TGI (NCI-H23 lung) | TGI (SNB-78 CNS) | TGI (OVCAR-5 ovarian) | TGI (COLO 205 colon) | TGI (SN12C renal) | TGI (UACC-257 melanoma) | TGI (HOP-18 NSCLC) | TGI (786-0 renal) | TGI (SK-MEL-5 melanoma) | TGI (LXFL 529 NSCLC) | TGI (SF-539 CNS) | TGI (DLD-1 colon) | TGI (ACHN renal) | TGI (HCC-2998 colon) | TGI (SNB-75 CNS) | TGI (KM20L2 colon) | TGI (DMS 273 small cell lung) | TGI (SNB-19 CNS) | TGI (OVCAR-4 ovarian) | TGI (HCT-116 colon) | TGI (SK-MEL-2 melanoma) | TGI (OVCAR-3 ovarian) | TGI (SF-268 CNS) | TGI (HOP-62 NSCLC)
83.4 µM: TGI (SR leukemia)
96.1 µM: TGI (CAKI-1 renal)
86.6 µM: TGI (MALME-3M melanoma)
75.2 µM: TGI (A498 renal)
49.7 µM: TGI (UO-31 renal)
65.9 µM: TGI (HOP-92 NSCLC)
99.7 µM: TGI (RXF 393 renal)
inactive: GI50 (MOLT-4 leukemia) 35.4 µM | GI50 (HCT-15 colon) 90.1 µM | GI50 (M14 melanoma) 83.8 µM | GI50 (UACC-62 melanoma) 56.5 µM | GI50 (NCI-H226 lung) > 100 µM | GI50 (DMS 114 small cell lung) > 100 µM | GI50 (RXF 393 renal) 34.1 µM | GI50 (A498 renal) 29.6 µM | GI50 (SR leukemia) 31.1 µM | GI50 (OVCAR-8 ovarian) 81.9 µM | GI50 (HT29 colon) 47.8 µM | GI50 (CCRF-CEM leukemia) 27.8 µM | GI50 (LOX IMVI melanoma) 80.3 µM | GI50 (K-562 leukemia) > 100 µM | GI50 (NCI-H460 lung) 55.8 µM | GI50 (RXF-631 renal) 49.4 µM | GI50 (MALME-3M melanoma) 35.1 µM | GI50 (A549 NSCLC) > 100 µM | GI50 (SW-620 colon) > 100 µM | GI50 (RPMI-8226 leukemia) 44.6 µM | GI50 (SK-MEL-28 melanoma) > 100 µM | GI50 (SF-295 CNS) 33.9 µM | GI50 (IGROV1 ovarian) 54.8 µM | GI50 (HL-60(TB) leukemia) 43.3 µM | GI50 (NCI-H23 lung) > 100 µM | GI50 (SNB-78 CNS) 72.2 µM | GI50 (OVCAR-5 ovarian) 53.8 µM | GI50 (EKVX NSCLC) 24.6 µM | GI50 (COLO 205 colon) > 100 µM | GI50 (SN12C renal) > 100 µM | GI50 (UACC-257 melanoma) > 100 µM | GI50 (HOP-18 NSCLC) 29.8 µM | GI50 (786-0 renal) 48 µM | GI50 (SK-MEL-5 melanoma) > 100 µM | GI50 (LXFL 529 NSCLC) 38.7 µM | GI50 (SF-539 CNS) 38.9 µM | GI50 (DLD-1 colon) 77.5 µM | GI50 (CAKI-1 renal) 33 µM | GI50 (ACHN renal) 35.9 µM | GI50 (HCC-2998 colon) > 100 µM | GI50 (SNB-75 CNS) 26.9 µM | GI50 (KM20L2 colon) 53.1 µM | GI50 (DMS 273 small cell lung) 44.4 µM | GI50 (SNB-19 CNS) 73 µM | GI50 (OVCAR-4 ovarian) > 100 µM | GI50 (HCT-116 colon) > 100 µM | GI50 (SK-MEL-2 melanoma) 78.3 µM | GI50 (OVCAR-3 ovarian) 46.4 µM | GI50 (SF-268 CNS) > 100 µM | GI50 (HOP-62 NSCLC) 46.2 µM | GI50 (HOP-92 NSCLC) 32.1 µM | GI50 (UO-31 renal) 11.7 µM
79.6 µM: TGI (EKVX NSCLC)
